The nature of data set [1]: Cmax in Wistar rat at 5 mg/kg, po measured upto 72 hrs by HPLC-MS analysis. Type of data set: ADME, organism-based. Also noted: route oral, dose 5 mg/kg, time <=72. The following applies: in vivo.
Data set [2] is described as follows: Toxicity in Wistar rat assessed as effect on relative weight of heart at 5 to 2000 mg/kg, po and measured on day 15. Type of data set: organism-based. The following applies: in vivo, 360 h, dose 5-2000 mg/kg, time 15 day.

`CC(=O)Nc1ccc(Oc2cccc3c(NC(=O)Nc4cccc(C(F)(F)F)c4)cccc23)cc1`: in data set [1], the concentration peaked (Cmax) at 39700 ng/mL. The Activity entry in data set [2] is reported as “Non-Toxic”.

(Values after ChEMBL document CHEMBL4706603, “Discovery of VEGFR-2 inhibitors exerting significant anticancer activity against CD44+ and CD133+ cancer stem cells (CSCs): Reversal of TGF-β induced epithelial-mesenchymal transition (EMT) in hepatocellular carcinoma” (Eur J Med Chem, 2020).)
